Results as given in PubChem BioAssay AID1195 (EPA DSSTox, 2008).
Starred links: 1 amine or outer side, 2 acyl side, 3 side chain; linkers in the order of their positions; H or OH if unused. Positions of bridges follow the written chain, without caps; N, C: chain ends. Non-standard residues stand in square brackets, D forms with d. Residues, ends and D or L forms follow the SMILES beside them. Chains are numbered I, II in the order given. Actinocin(9to1) = Cc1c2oc3c(C)ccc(C(=O)[*:1])c3nc-2c(C(=O)[*:2])c(N)c1=O; NMeV = CN[C@H](C(=O)O)C(C)C; Sar = CNCC(=O)O

Tested on: human maximum recommended daily dose, FDA database
Assay: DSSTox (FDAMDD) FDA Maximum (Recommended) Daily Dose Database
Conditions: hits give low values
How it was run: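 MRDD values come from clinical trials with daily oral dosing, usually for 3–12 months, for the average adult, in mg/day converted to mg/kg-bw/day assuming 60 kg. Antineoplastic mg/m2 doses are divided by 37. Activity score maps log10(1/MRDD mmol) onto 1–100.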

[1] = TherapeuticCategory: antineoplastic
[2] = TherapeuticCategory: antibacterial
[3] = TherapeuticCategory: cardiotonic
[4] = TherapeuticCategory: anticholinergic
[5] = TherapeuticCategory: antipsychotic
[6] = TherapeuticCategory: diagnostic aid
[7] = TherapeuticCategory: narcotic analgesic

O=NN(CCCl)C(=O)NCCCl showed a maximum recommended daily dose (mmol/kg-bw/day) [1] of 0.000389.

With C[C@H]1C[C@H]2[C@@H]3CCC4=CC(=O)C=C[C@]4(C)[C@H]3C(=O)C[C@]2(C)[C@@]1(O)C(=O)CO the maximum recommended daily dose (mmol/kg-bw/day) (TherapeuticCategory: glucocorticoid) was 0.00215.

Compound C[C@]12CCC(=O)C=C1CC[C@H]1[C@@H]3CC[C@](O)(C(=O)CO)[C@@]3(C)C[C@H](O)[C@@]12F has a maximum recommended daily dose (mmol/kg-bw/day) (TherapeuticCategory: mineralcorticoid) of 4.39e-06.

COc1cccc2c1C(=O)c1c(O)c3c(c(O)c1C2=O)C[C@@](O)(C(=O)CO)C[C@@H]3O[C@H]1C[C@H](N)[C@H](O)[C@H](C)O1 was tested, and the maximum recommended daily dose (mmol/kg-bw/day) [1] was 0.00447.

NC(=O)c1cnccn1 was tested, and the maximum recommended daily dose (mmol/kg-bw/day) [2] was 0.244.

Compound CO[C@@H]1[C@@H](OC(N)=O)[C@@H](O)[C@H](Oc2ccc3c(O)c(NC(=O)c4ccc(O)c(CC=C(C)C)c4)c(=O)oc3c2C)OC1(C)C has a maximum recommended daily dose (mmol/kg-bw/day) [2] of 0.0394.

In the case of C[N+](C)(C)CCOC(=O)CCC(=O)OCC[N+](C)(C)C, the maximum recommended daily dose (mmol/kg-bw/day) (TherapeuticCategory: skeletal muscle relaxant) is reported as 0.00304.

Compound CN1CCC(=C2c3ccccc3CCc3sccc32)CC1 has a maximum recommended daily dose (mmol/kg-bw/day) (TherapeuticCategory: anabolic, antidepressant, serotonin inhibitor) of 0.000169.

Compound CCN(CC)CCCN(c1ccccc1)C1Cc2ccccc2C1 has a maximum recommended daily dose (mmol/kg-bw/day) (TherapeuticCategory: antiarrhythmic) of 0.0155.

Work on CC(=O)[C@@]12O[C@](C)(c3ccccc3)O[C@@H]1C[C@H]1[C@@H]3CCC4=CC(=O)CC[C@]4(C)[C@H]3CC[C@@]12C yielded a maximum recommended daily dose (mmol/kg-bw/day) (TherapeuticCategory: acne treatment) of 0.00557.

O=C1O[C@H]([C@@H](O)CO)C(O)=C1O showed a maximum recommended daily dose (mmol/kg-bw/day) (TherapeuticCategory: vitamin C deficiency) of 0.568.

O=C(O)C1CSCN1 (stereo not given) gave a maximum recommended daily dose (mmol/kg-bw/day) (TherapeuticCategory: choleretic) of 0.0751.

O=c1oc2ccccc2c(O)c1Cc1c(O)c2ccccc2oc1=O gave a maximum recommended daily dose (mmol/kg-bw/day) (TherapeuticCategory: anticoagulant) of 0.0149.

CC(C)NCC(O)COc1ccc(CC(N)=O)cc1 (stereo not given) showed a maximum recommended daily dose (mmol/kg-bw/day) (TherapeuticCategory: antihypertensive, antianginal, antiarrhythmic) of 0.0125.

Work on CC(=O)O[C@H]1C[C@H](O[C@H]2[C@@H](O)C[C@H](O[C@H]3[C@@H](O)C[C@H](O[C@H]4CC[C@@]5(C)[C@H](CC[C@@H]6[C@@H]5CC[C@]5(C)[C@@H](C7=CC(=O)OC7)CC[C@]65O)C4)O[C@@H]3C)O[C@@H]2C)O[C@H](C)[C@H]1O yielded a maximum recommended daily dose (mmol/kg-bw/day) [3] of 4.13e-06.

CN(C)CCO showed a maximum recommended daily dose (mmol/kg-bw/day) (TherapeuticCategory: antidepressant) of 0.168.

With CN(C)CC/C=C1\c2ccccc2COc2ccc(CC(=O)O)cc21 the maximum recommended daily dose (mmol/kg-bw/day) (TherapeuticCategory: antihistaminic, antiallergic) was 0.000987.

With CCn1nc(C(=O)O)c(=O)c2cc3c(cc21)OCO3 the maximum recommended daily dose (mmol/kg-bw/day) [2] was 0.0637.

CCCCCCc1ccc(O)cc1O was tested, and the maximum recommended daily dose (mmol/kg-bw/day) (TherapeuticCategory: antihelmintic, antiseptic) was 0.0858.

CC[N+](CC)(CC)CCC(O)(c1ccccc1)C1CCCCC1 (stereo not given) was tested, and the maximum recommended daily dose (mmol/kg-bw/day) [4] was 0.00941.

Work on NC[C@@H]1O[C@H](O[C@H]2[C@@H](O)[C@H](O[C@@H]3[C@@H](O)[C@H](N)C[C@H](N)[C@H]3O[C@H]3O[C@H](CN)[C@@H](O)[C@H](O)[C@H]3N)O[C@@H]2CO)[C@H](N)[C@@H](O)[C@@H]1O yielded a maximum recommended daily dose (mmol/kg-bw/day) [2] of 0.163.

For CCOC(=O)c1c(C)cc2c(CO)n[nH]c(=O)c2c1C, the maximum recommended daily dose (mmol/kg-bw/day) (TherapeuticCategory: phosphodiesterase inhibitor) was 0.724.

O=C(CCCN1CC=C(n2c(=O)[nH]c3ccccc32)CC1)c1ccc(F)cc1 showed a maximum recommended daily dose (mmol/kg-bw/day) [5] of 0.000725.

Cc1onc(-c2ccccc2)c1C(=O)N[C@@H]1C(=O)N2[C@@H]1SC(C)(C)[C@@H]2C(=O)O was tested, and the maximum recommended daily dose (mmol/kg-bw/day) [2] was 0.249.

N[C@@H](Cc1cc(I)c(Oc2cc(I)c(O)c(I)c2)c(I)c1)C(=O)O was tested, and the maximum recommended daily dose (mmol/kg-bw/day) (TherapeuticCategory: hyperthyroidism) was 1.07e-05.

NS(=O)(=O)c1cc2c(cc1Cl)NC=NS2(=O)=O was tested, and the maximum recommended daily dose (mmol/kg-bw/day) (TherapeuticCategory: diuretic) was 0.113.

With CCCC(CCC)C(=O)O the maximum recommended daily dose (mmol/kg-bw/day) (TherapeuticCategory: anticonvulsant, antiepileptic) was 0.289.

With CC(C)NCC(O)COc1ccc(O)cc1 (stereo not given) the maximum recommended daily dose (mmol/kg-bw/day) [3] was 0.00148.

CC(C)(C#N)c1cc(Cn2cncn2)cc(C(C)(C)C#N)c1 gave a maximum recommended daily dose (mmol/kg-bw/day) (TherapeuticCategory: androgen) of 5.69e-05.

Work on O=C(CCCN1CCC(O)(c2cccc(C(F)(F)F)c2)CC1)c1ccc(F)cc1 yielded a maximum recommended daily dose (mmol/kg-bw/day) [5] of 0.000325.

For CNC(=O)c1c(I)c(NC(C)=O)c(I)c(C(=O)O)c1I, the maximum recommended daily dose (mmol/kg-bw/day) [6] was 0.163.

Compound CCC(=O)O[C@](Cc1ccccc1)(c1ccccc1)[C@H](C)CN(C)C has a maximum recommended daily dose (mmol/kg-bw/day) [7] of 0.0191.

Compound C[N+](C)(C)C[C@H](O)CC(=O)[O-] has a maximum recommended daily dose (mmol/kg-bw/day) (TherapeuticCategory: antihyperlipoproteinemic) of 0.307.

With CCCCN(CCCC)CCC(O)c1cc2c(Cl)cc(Cl)cc2c2cc(C(F)(F)F)ccc12 (stereo not given) the maximum recommended daily dose (mmol/kg-bw/day) (TherapeuticCategory: antimalarial) was 0.05.

Work on CN1[C@@H](CC(=O)c2ccccc2)CCC[C@H]1C[C@H](O)c1ccccc1 yielded a maximum recommended daily dose (mmol/kg-bw/day) (TherapeuticCategory: respiratory stimulant) of 0.000495.

O=C(O)Cc1sc(-c2ccccc2)nc1-c1ccc(Cl)cc1 gave a maximum recommended daily dose (mmol/kg-bw/day) (TherapeuticCategory: anti inflammatory) of 0.0455.

With CC[N+](C)(C)c1cccc(O)c1 the maximum recommended daily dose (mmol/kg-bw/day) (TherapeuticCategory: cholinergic) was 0.00347.

With CN(Cc1cc(Br)cc(Br)c1N)C1CCCCC1 the maximum recommended daily dose (mmol/kg-bw/day) (TherapeuticCategory: expectorant, mucolytic) was 0.00213.

CCOc1ccc(Cc2nccc3cc(OCC)c(OCC)cc23)cc1OCC showed a maximum recommended daily dose (mmol/kg-bw/day) (TherapeuticCategory: antispasmodic) of 0.0253.

O=C(c1ccc(OCCN2CCCCC2)cc1)c1c(-c2ccc(O)cc2)sc2cc(O)ccc12 showed a maximum recommended daily dose (mmol/kg-bw/day) (TherapeuticCategory: antiosteoporotic, antiestrogen) of 0.0211.

With S=c1nc[nH]c2nc[nH]c12 the maximum recommended daily dose (mmol/kg-bw/day) [1] was 0.0164.

With Cc1ccc(C(=O)Oc2ccc(C(O)CNC(C)(C)C)cc2OC(=O)c2ccc(C)cc2)cc1 (stereo not given) the maximum recommended daily dose (mmol/kg-bw/day) (TherapeuticCategory: bronchodilator) was 8.02e-05.

In the case of CC(C)(O)c1ccccc1CC[C@@H](SCC1(CC(=O)O)CC1)c1cccc(/C=C/c2ccc3ccc(Cl)cc3n2)c1, the maximum recommended daily dose (mmol/kg-bw/day) (TherapeuticCategory: antiasthmatic) is reported as 0.000285.

CN(C)c1nc(N(C)C)nc(N(C)C)n1 was tested, and the maximum recommended daily dose (mmol/kg-bw/day) [1] was 0.0257.

CCC(=O)O[C@]1(c2ccccc2)CCN(C)C[C@@H]1C gave a maximum recommended daily dose (mmol/kg-bw/day) [7] of 0.00191.

In the case of Cc1c2oc3c(C)ccc(C(=O)N[C@@H]4C(=O)N[C@H](C(C)C)C(=O)N5CCC[C@H]5C(=O)N(C)CC(=O)N(C)[C@@H](C(C)C)C(=O)O[C@@H]4C)c3nc-2c(C(=O)N[C@@H]2C(=O)N[C@H](C(C)C)C(=O)N3CCC[C@H]3C(=O)N(C)CC(=O)N(C)[C@@H](C(C)C)C(=O)O[C@@H]2C)c(N)c1=O (I: T[dV]P[Sar][NMeV] / II: T[dV]P[Sar][NMeV]; ester I:1-I:C, II:1-II:C; linker I:N-II:N via Actinocin(9to1)), the maximum recommended daily dose (mmol/kg-bw/day) [1] is reported as 1.19e-05.

CC[N+](C)(CC)CCOC(=O)C1c2ccccc2Oc2ccccc21 gave a maximum recommended daily dose (mmol/kg-bw/day) [4] of 0.0159.

Compound CC(=O)OCCN1CCN(CCCN2c3ccccc3Sc3ccc(Cl)cc32)CC1 has a maximum recommended daily dose (mmol/kg-bw/day) [5] of 0.00336.

For CNC[C@H](O)c1cccc(O)c1, the maximum recommended daily dose (mmol/kg-bw/day) (TherapeuticCategory: mydriatic, decongestant) was 0.00498.

In the case of Cc1cccc(C)c1NC(=O)c1cc(S(N)(=O)=O)c(Cl)cc1O, the maximum recommended daily dose (mmol/kg-bw/day) (TherapeuticCategory: diuretic, antihypertensive) is reported as 0.00188.

For Cc1cc2cc3c(C)cc(=O)oc3c(C)c2o1, the maximum recommended daily dose (mmol/kg-bw/day) (TherapeuticCategory: pigmentation agent) was 0.000732.

CC[C@H](C)C(=O)O[C@H]1C[C@@H](C)C=C2C=C[C@H](C)[C@H](CC[C@@H]3C[C@@H](O)CC(=O)O3)[C@H]21 showed a maximum recommended daily dose (mmol/kg-bw/day) (TherapeuticCategory: antihypercholesterolemic) of 0.00329.

For Cc1ccc(Cl)c(OCC(O)CNC(C)(C)C)c1 (stereo not given), the maximum recommended daily dose (mmol/kg-bw/day) (TherapeuticCategory: antihypertensive, antianginal, antiarrhythmic, antiglaucomic) was 0.0245.

Compound C[C@@H]1C[C@H]2[C@@H]3CCC4=CC(=O)C=C[C@]4(C)[C@@]3(Cl)[C@@H](O)C[C@]2(C)[C@@]1(OC(=O)c1ccco1)C(=O)CCl has a maximum recommended daily dose (mmol/kg-bw/day) (TherapeuticCategory: topical anti inflammatory) of 2.88e-05.

Work on CNCC12CCC(c3ccccc31)c1ccccc12 yielded a maximum recommended daily dose (mmol/kg-bw/day) (TherapeuticCategory: anxiolytic, skeletal muscle relaxant) of 0.00401.

CN(C)CC[C@@H](c1ccc(Br)cc1)c1ccccn1 gave a maximum recommended daily dose (mmol/kg-bw/day) (TherapeuticCategory: antihistaminic) of 0.00251.

Compound NC(=O)NC(=O)Cc1ccccc1 has a maximum recommended daily dose (mmol/kg-bw/day) (TherapeuticCategory: anticonvulsant) of 0.281.

CC1(C)C(\C=C/C=C\C=C/C=C2/N(CCCCS(=O)(=O)O)c3ccc4ccccc4c3C2(C)C)=[N+](CCCCS(=O)(=O)[O-])c2ccc3ccccc3c21 gave a maximum recommended daily dose (mmol/kg-bw/day) [6] of 0.000645.

Compound CCN(CC)C(=O)N[C@H]1C=C2c3cccc4[nH]cc(c34)C[C@H]2N(C)C1 has a maximum recommended daily dose (mmol/kg-bw/day) (TherapeuticCategory: antimigraine, prolactin inhibitor) of 0.000246.

CNC(=O)Oc1ccc2c(c1)[C@]1(C)CCN(C)[C@@H]1N2C was tested, and the maximum recommended daily dose (mmol/kg-bw/day) (TherapeuticCategory: cholinergic, miotic) was 6.07e-05.
